Columns and labels:
Sialidase-1 [1] = target: T1, Sialidase-1 (Homo sapiens, UniProt Q99519); assay: Inhibition of recombinant His6-tagged human neuraminidase 1 expressed in HEK293 cells using 4MU-NANA as substrate preincubated for 15 mins followed by substrate addition measured every 1 min for 30 mins by fluorescence analysis
Sialidase-1 [2] = target: T1, Sialidase-1; assay: Inhibition of recombinant His6-tagged human neuraminidase 1 expressed in HEK293 cells using 4MU-NANA as substrate preincubated for 15 mins followed by substrate addition measured after 30 mins by fluorescence analysis
Sialidase-3 [3] = target: T2, Sialidase-3 (Homo sapiens, UniProt Q9UQ49); assay: Inhibition of MBP-fused recombinant human neuraminidase 3 expressed in Escherichia coli using 4MU-NANA as substrate preincubated for 15 mins followed by substrate addition measured after 30 mins by fluorescence analysis
T2 sequence (Q9UQ49 whole entry): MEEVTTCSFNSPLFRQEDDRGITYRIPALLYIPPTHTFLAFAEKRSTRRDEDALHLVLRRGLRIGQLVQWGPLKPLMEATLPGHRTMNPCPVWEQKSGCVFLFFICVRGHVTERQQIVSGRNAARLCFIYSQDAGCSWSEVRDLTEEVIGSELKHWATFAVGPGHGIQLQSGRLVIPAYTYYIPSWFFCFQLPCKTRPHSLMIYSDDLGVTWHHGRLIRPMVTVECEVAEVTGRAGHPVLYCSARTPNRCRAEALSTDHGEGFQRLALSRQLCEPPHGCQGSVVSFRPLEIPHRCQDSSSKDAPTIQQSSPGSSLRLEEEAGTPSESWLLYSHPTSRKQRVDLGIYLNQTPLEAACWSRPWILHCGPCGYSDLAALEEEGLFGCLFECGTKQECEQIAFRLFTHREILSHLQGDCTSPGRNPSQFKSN

Sialidase-4 [4] = target: T3, Sialidase-4 (Homo sapiens, UniProt Q8WWR8); assay: Inhibition of MBP-fused recombinant human neuraminidase 4 expressed in Escherichia coli using 4MU-NANA as substrate preincubated for 15 mins followed by substrate addition measured after 30 mins by fluorescence analysis
T3 sequence (Q8WWR8 whole entry): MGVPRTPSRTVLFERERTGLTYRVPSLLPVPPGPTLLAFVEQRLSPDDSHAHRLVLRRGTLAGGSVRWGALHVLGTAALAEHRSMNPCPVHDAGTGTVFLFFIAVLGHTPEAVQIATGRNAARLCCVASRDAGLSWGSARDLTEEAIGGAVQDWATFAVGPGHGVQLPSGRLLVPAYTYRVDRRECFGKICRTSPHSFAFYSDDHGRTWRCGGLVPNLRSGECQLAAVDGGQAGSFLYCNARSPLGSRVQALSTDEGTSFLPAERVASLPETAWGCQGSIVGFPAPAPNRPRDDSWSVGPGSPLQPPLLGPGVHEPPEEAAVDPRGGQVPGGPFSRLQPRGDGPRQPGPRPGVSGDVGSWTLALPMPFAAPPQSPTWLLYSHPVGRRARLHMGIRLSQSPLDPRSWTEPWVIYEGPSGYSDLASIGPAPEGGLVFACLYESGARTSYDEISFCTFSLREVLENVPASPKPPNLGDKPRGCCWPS

Sialidase-3 [5] = target: T2, Sialidase-3; assay: Inhibition of MBP-fused recombinant human neuraminidase 3 expressed in Escherichia coli using 4MU-NANA as substrate preincubated for 15 mins followed by substrate addition measured every 1 min for 30 mins by fluorescence analysis
Sialidase-4 [6] = target: T3, Sialidase-4; assay: Inhibition of MBP-fused recombinant human neuraminidase 4 expressed in Escherichia coli using 4MU-NANA as substrate preincubated for 15 mins followed by substrate addition measured every 1 min for 30 mins by fluorescence analysis

SMILES	Ki (Sialidase-1 [1])	IC50 (Sialidase-1 [2]) [µM]	IC50 (Sialidase-3 [3]) [µM]	IC50 (Sialidase-4 [4]) [µM]	Ki (Sialidase-3 [5])	Ki (Sialidase-4 [6])
CC(=O)N[C@H]1[C@H]([C@H](O)[C@H](O)CO)OC(C(=O)O)=C[C@@H]1NC(=N)N [ZANAMIVIR]	Not Active					
CCC(CC)[C@H](NC(C)=O)[C@@H]1[C@H](O)[C@@H](C(=O)O)C[C@H]1NC(=N)N [PERAMIVIR ANHYDROUS]	Not Active	> 500	> 500	> 500	Not Active	Not Active
CC(=O)N[C@H]1[C@H]([C@H](O)[C@H](O)CO)OC(O)(C(=O)O)C[C@@H]1O (some centres undefined)	Not Active	> 500	> 500	> 500	Not Active	Not Active
CCOC(=O)C1=C[C@@H](OC(CC)CC)[C@H](NC(C)=O)[C@@H](N)C1 [OSELTAMIVIR]	Not Active	> 500	> 500	> 500	Not Active	Not Active

Source: ChEMBL document CHEMBL4270532, “Molecular dynamics simulations of viral neuraminidase inhibitors with the human neuraminidase enzymes: Insights into isoenzyme selectivity” (Bioorg Med Chem, 2018)
